The target of one experiment is HDAC1 (Homo sapiens (Human), UniProt Q13547). The experiment is described as follows: HDAC1 enzyme activity inhibition assay (HDAC1 Fluorimetric Drug Discovery Assay Kit). The format is biochemical. To be noted: test substance 100, 1000, 10000 nM; 37° C. 60 minutes, developer 30 minutes; fluorescence Ex 390, Em 460. On the procedure: (§1) The HDAC enzyme inhibition ability of the test substance was measured using the HDAC1 Fluorimetric Drug Discovery Assay Kit (Enzo life sciences: BML-AK511) and the HDAC6 human recombinant (Calbiochem: 382180). In the HDAC1 assay, the test substance was treated at concentrations of 100, 1000, and 10000 nM, and in the HDAC6 assay, the test substance was treated at concentrations of 0.1, 1, 10, 100, and 1000 nM. After sample treatment, the samples were reacted at 37° C. for 60 minutes, followed by reaction at 37° C. for 30 minutes by treatment with a developer, and fluorescence intensities (Ex 390, Em 460) thereof were measured using FlexStatin3 (Molecular device).
HDAC1, sequence (Q13547 whole entry): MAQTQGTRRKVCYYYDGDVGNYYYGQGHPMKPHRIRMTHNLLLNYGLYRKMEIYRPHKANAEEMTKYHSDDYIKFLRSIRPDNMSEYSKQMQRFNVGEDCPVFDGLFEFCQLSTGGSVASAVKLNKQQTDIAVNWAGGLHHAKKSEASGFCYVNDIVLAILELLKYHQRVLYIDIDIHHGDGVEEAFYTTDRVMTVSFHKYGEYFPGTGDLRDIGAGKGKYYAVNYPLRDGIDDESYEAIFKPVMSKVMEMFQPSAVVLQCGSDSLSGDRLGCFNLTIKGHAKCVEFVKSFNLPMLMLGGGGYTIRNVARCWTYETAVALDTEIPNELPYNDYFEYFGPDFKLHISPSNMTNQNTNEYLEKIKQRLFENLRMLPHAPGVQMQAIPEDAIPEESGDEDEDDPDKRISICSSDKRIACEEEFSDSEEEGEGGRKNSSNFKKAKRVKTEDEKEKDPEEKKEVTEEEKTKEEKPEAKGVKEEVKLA

Another experiment addresses HDAC6 human recombinant (Homo sapiens (Human), UniProt Q9UBN7). The experiment is described as follows: HDAC6 enzyme activity inhibition assay (fluorimetric). The format is biochemical. The settings on record: test substance 0.1-1000 nM; 37° C. 60 minutes, developer 30 minutes; fluorescence Ex 390, Em 460. On the procedure:
as §1

A word on the IC50: it is the concentration that gives 50% inhibition.

HDAC6 human recombinant, sequence (Q9UBN7 whole entry): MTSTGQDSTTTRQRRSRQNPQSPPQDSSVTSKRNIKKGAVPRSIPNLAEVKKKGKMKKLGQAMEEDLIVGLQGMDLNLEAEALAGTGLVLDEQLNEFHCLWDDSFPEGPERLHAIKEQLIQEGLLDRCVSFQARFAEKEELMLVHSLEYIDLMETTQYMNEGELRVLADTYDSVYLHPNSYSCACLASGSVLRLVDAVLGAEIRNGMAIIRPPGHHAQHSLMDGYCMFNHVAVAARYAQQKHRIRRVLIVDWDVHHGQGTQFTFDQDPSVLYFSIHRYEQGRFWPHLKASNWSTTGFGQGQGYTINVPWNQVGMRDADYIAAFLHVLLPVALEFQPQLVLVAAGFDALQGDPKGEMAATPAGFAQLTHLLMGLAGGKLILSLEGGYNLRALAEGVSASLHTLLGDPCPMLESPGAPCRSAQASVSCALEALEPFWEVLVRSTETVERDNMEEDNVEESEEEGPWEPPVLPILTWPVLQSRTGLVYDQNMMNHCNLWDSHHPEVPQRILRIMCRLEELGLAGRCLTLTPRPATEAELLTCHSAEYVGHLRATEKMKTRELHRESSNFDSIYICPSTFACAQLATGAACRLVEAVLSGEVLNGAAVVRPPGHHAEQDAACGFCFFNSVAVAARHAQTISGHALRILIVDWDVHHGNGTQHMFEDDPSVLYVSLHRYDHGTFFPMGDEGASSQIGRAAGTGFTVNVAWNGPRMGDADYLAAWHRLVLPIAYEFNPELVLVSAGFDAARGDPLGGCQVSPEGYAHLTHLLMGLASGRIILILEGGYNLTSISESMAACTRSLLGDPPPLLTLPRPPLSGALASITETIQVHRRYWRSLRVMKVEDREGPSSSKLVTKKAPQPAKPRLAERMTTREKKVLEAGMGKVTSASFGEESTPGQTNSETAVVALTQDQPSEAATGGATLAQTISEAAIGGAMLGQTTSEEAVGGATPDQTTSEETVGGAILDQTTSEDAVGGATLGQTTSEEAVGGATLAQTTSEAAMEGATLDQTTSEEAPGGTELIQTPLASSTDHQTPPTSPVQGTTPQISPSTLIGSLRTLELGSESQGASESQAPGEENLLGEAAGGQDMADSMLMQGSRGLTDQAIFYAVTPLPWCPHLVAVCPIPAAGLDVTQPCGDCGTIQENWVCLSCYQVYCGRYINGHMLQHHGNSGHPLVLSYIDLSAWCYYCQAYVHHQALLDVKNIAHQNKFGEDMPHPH

Consider `CN1CCN(c2c(N(Cc3ccc(-c4nnc(C(F)F)o4)cc3F)c3ccccc3)c(=O)c2=O)CC1` [Compound 1, 3-((4-(5-(difluoromethyl)-1,3,4-oxadiazol-2-yl)-2-fluorobenzyl)(phenyl)amino)-4-(4-methylpiperazin-1-yl)cyclobut-3-ene-1,2-dione], for which the figures for the IC50 on HDAC1 and on HDAC6 human recombinant were over 10000 nM and 22 nM, respectively.

Consider `O=c1c(N2CCOCC2)c(N(Cc2ccc(-c3nnc(C(F)F)o3)cc2F)c2ccccc2)c1=O` [Compound 2, 3-((4-(5-(difluoromethyl)-1,3,4-oxadiazol-2-yl)-2-fluorobenzyl)(phenyl)amino)-4-morpholinocyclobut-3-ene-1,2-dione], for which the concentration for half-maximal inhibition (IC50) at HDAC1 is over 10000 nM. Take `O=c1c(N2CCS(=O)(=O)CC2)c(N(Cc2ccc(-c3nnc(C(F)F)o3)cc2F)c2ccccc2)c1=O` [Compound 3, 3-((4-(5-(difluoromethyl)-1,3,4-oxadiazol-2-yl)-2-fluorobenzyl)(phenyl)amino)-4-(1,1-dioxidothiomorpholino)cyclobut-3-ene-1,2-dione]: the IC50 was over 10000 nM on HDAC1 and 27 nM on HDAC6 human recombinant. The corresponding values for `CN1CCN(c2c(N(Cc3ccc(-c4nnc(C(F)F)o4)cc3)c3ccccc3)c(=O)c2=O)CC1` [Compound 4, 3-((4-(5-(difluoromethyl)-1,3,4-oxadiazol-2-yl)benzyl)(phenyl)amino)-4-(4-methylpiperazin-1-yl)cyclobut-3-ene-1,2-dione] are over 10000 nM and 31 nM.

Take `O=c1c(N2CCS(=O)(=O)CC2)c(N(Cc2ccc(-c3nnc(C(F)F)o3)cc2)c2ccccc2)c1=O` [Compound 5, 3-((4-(5-(difluoromethyl)-1,3,4-oxadiazol-2-yl)benzyl)(phenyl)amino)-4-(1,1-dioxidothiomorpholino)cyclobut-3-ene-1,2-dione]: the half-inhibitory concentration (IC50) was over 10000 nM against HDAC1 and 29 nM at HDAC6 human recombinant. At HDAC1, `O=c1c(N2CCS(=O)(=O)CC2)c(N(Cc2ncc(-c3nnc(C(F)F)o3)cc2F)c2ccccc2)c1=O` [Compound 6, 3-(((5-(5-(difluoromethyl)-1,3,4-oxadiazol-2-yl)-3-fluoropyridin-2-yl)methyl)(phenyl)amino)-4-(1,1-dioxidothiomorpholino)cyclobut-3-ene-1,2-dione] returned an IC50 of over 10000 nM. For `CN1CCN(c2c(N(Cc3ccc(-c4nnc(C(F)F)o4)cc3F)c3cc(F)cc(Br)c3)c(=O)c2=O)CC1` [Compound 7, 3-((3-bromo-5-fluorophenyl)(4-(5-(difluoromethyl)-1,3,4-oxadiazol-2-yl)-2-fluorobenzyl)amino)-4-(4-methylpiperazin-1-yl)cyclobut-3-ene-1,2-dione], the IC50 is over 10000 nM against HDAC1 and 36 nM at HDAC6 human recombinant. The corresponding values for `CN1CCN(c2c(N(Cc3ccc(-c4nnc(C(F)F)o4)cc3F)c3cc(F)cc(-c4cccnc4)c3)c(=O)c2=O)CC1` [Compound 8, 3-((4-(5-(difluoromethyl)-1,3,4-oxadiazol-2-yl)-2-fluorobenzyl)(3-fluoro-5-(pyridin-3-yl)phenyl)amino)-4-(4-methylpiperazin-1-yl)cyclobut-3-ene-1,2-dione] are over 10000 nM and 35 nM.

As to `O=c1c(N2CC3(C2)CN(C2COC2)C3)c(N(Cc2ccc(-c3nnc(C(F)F)o3)cc2F)c2ccccc2)c1=O` [Compound 10, 3-((4-(5-(difluoromethyl)-1,3,4-oxadiazol-2-yl)-2-fluorobenzyl)(phenyl)amino)-4-(6-(oxetan-3-yl)-2,6-diazaspiro[3.3]heptan-2-yl)cyclobut-3-ene-1,2-dione], the IC50 at HDAC1 is over 10000 nM; on HDAC6 human recombinant, 56 nM. The corresponding values for `CN1CC2(C1)CN(c1c(N(Cc3ccc(-c4nnc(C(F)F)o4)cc3)c3ccccc3)c(=O)c1=O)C2` [Compound 11, 3-((4-(5-(difluoromethyl)-1,3,4-oxadiazol-2-yl)benzyl)(phenyl)amino)-4-(6-methyl-2,6-diazaspyro[3.3]heptan-2-yl)cyclobut-3-ene-1,2-dione] are over 10000 nM and 60 nM. Regarding `CN1CCN(c2c(N(Cc3ccc(-c4nnc(C(F)F)o4)cc3F)c3cccc(Br)c3)c(=O)c2=O)CC1` [Compound 12, 3-((3-bromophenyl)(4-(5-(difluoromethyl)-1,3,4-oxadiazol-2-yl)-2-fluorobenzyl)amino)-4-(4-methylpiperazin-1-yl)cyclobut-3-ene-1,2-dione], the IC50 against HDAC1 was over 10000 nM; at HDAC6 human recombinant, 30 nM. The corresponding values for `O=c1c(N(Cc2ccc(-c3nnc(C(F)F)o3)cc2F)c2ccccc2)c(N2C[C@@H]3C[C@H]2CN3C2COC2)c1=O` [Compound 13, 3-((4-(5-(difluoromethyl)-1,3,4-oxadiazol-2-yl)-2-fluorobenzyl)(phenyl)amino)-4-((1S,4S)-5-(oxetan-3-yl)-2,5-diazabicyclo[2.2.1]heptan-2-yl)cyclobut-3-ene-1,2-dione] are over 10000 nM and 24 nM.

For `CN1C[C@@H]2C[C@H]1CN2c1c(N(Cc2ccc(-c3nnc(C(F)F)o3)cc2F)c2ccccc2)c(=O)c1=O` [Compound 14, 3-((4-(5-(difluoromethyl)-1,3,4-oxadiazol-2-yl)-2-fluorobenzyl)(phenyl)amino)-4-((1S,4S)-5-methyl-2,5-diazabicyclo[2.2.1]heptan-2-yl)cyclobut-3-ene-1,2-dione], the half-maximal inhibitory concentration (IC50) against HDAC1 was over 10000 nM. With `CN1C[C@@H]2C[C@H]1CN2c1c(N(Cc2ccc(-c3nnc(C(F)F)o3)cn2)c2ccccc2)c(=O)c1=O` [Compound 15, 3-(((5-(5-(difluoromethyl)-1,3,4-oxadiazol-2-yl)pyridin-2-yl)methyl)(phenyl)amino)-4-((1S,4S)-5-methyl-2,5-diazabicyclo[2.2.1]heptan-2-yl)cyclobut-3-ene-1,2-dione], the 50% inhibitory concentration (IC50) is over 10000 nM at HDAC1 and 22 nM at HDAC6 human recombinant.

Turning to `CC(C)N1C[C@@H]2C[C@H]1CN2c1c(N(Cc2ccc(-c3nnc(C(F)F)o3)cn2)c2ccccc2)c(=O)c1=O` [Compound 16, 3-(((5-(5-(difluoromethyl)-1,3,4-oxadiazol-2-yl)pyridin-2-yl)methyl)(phenyl)amino)-4-((1S,4S)-5-isopropyl-2,5-diazabicyclo[2.2.1]heptan-2-yl)cyclobut-3-ene-1,2-dione], the half-maximal inhibitory concentration (IC50) at HDAC1 was over 10000 nM; on HDAC6 human recombinant it was 28 nM. Take `CN1C[C@@H]2C[C@H]1CN2c1c(N(Cc2ncc(-c3nnc(C(F)F)o3)cc2F)c2ccccc2)c(=O)c1=O` [Compound 20, 3-(((5-(5-(difluoromethyl)-1,3,4-oxadiazol-2-yl)-3-fluoropyridin-2-yl)methyl)(phenyl)amino)-4-((1S,4S)-5-methyl-2,5-diazabicyclo[2.2.1]heptan-2-yl)cyclobut-3-ene-1,2-dione]: at HDAC1, the concentration for half-maximal inhibition (IC50) is over 10000 nM. Turning to `O=c1c(N(Cc2ncc(-c3nnc(C(F)F)o3)cc2F)c2ccccc2)c(N2C[C@@H]3C[C@H]2CN3C2COC2)c1=O` [Compound 21, 3-(((5-(5-(difluoromethyl)-1,3,4-oxadiazol-2-yl)-3-fluoropyridin-2-yl)methyl)(phenyl)amino)-4-((1S,4S)-5-(oxetan-3-yl)-2,5-diazabicyclo[2.2.1]heptan-2-yl)cyclobut-3-ene-1,2-dione], at HDAC1, the half-maximal inhibitory concentration (IC50) is over 10000 nM.

The values above are taken from patent publication US20260028321A1, “1,3,4-OXADIAZOLE DERIVATIVE COMPOUNDS AS HISTONE DEACETYLASE 6 INHIBITOR, AND USES THEREOF” (CHONG KUN DANG PHARMACEUTICAL CORP., priority 2022, published 2026).
